Results published in patent publication US20240041042A1, “1-(PYRIDYL)-5-AZINYLPYRAZOLE DERIVATIVES, AND THEIR USE FOR CONTROL OF UNDESIRED PLANT GROWTH” (Bayer Aktiengesellschaft, priority 2020, published 2024).
Like-named read-outs stand apart in the source and are kept apart here. One block for each compound: values may come before it.

Columns and labels:
Type in all cases: in vivo
[1] = system: Abutilon theophrasti (ABUTH); experiment: Pre-emergence herbicidal action against ABUTH; details: Dosage column 320 g/ha (title prints 3200 g/ha); scored visually after about 3 weeks; 100% = plants have died
Text: Seeds of monocotyledonous and dicotyledonous weed plants and crop plants are placed in plastic or organic planting pots and covered with soil. The compounds of the invention, formulated in the form of wettable powders (WP) or as emulsion concentrates (EC), are then applied to the surface of the covering soil as aqueous suspension or emulsion with addition of 0.5% additive at a water application rate equivalent to 600 l/ha. After the treatment, the pots are placed in a greenhouse and kept under good growth conditions for the trial plants. After about 3 weeks, the effect of the preparations is scored visually in comparison with untreated controls as percentages. For example, 100% activity=the plants have died, 0% activity=like control plants.
Tables A1 to A13 below show the effects of selected compounds of the general formula (I) on various harmful plants and at an application rate corresponding to 320 g/ha or lower, which were obtained by the experimental procedure mentioned above. The appendices “a”, “b” and “c” give differentiation by dosage used with otherwise the same harmful plants tested.

[2] = system: Alopecurus myosuroides (ALOMY); experiment: Pre-emergence herbicidal action against ALOMY; details: scored visually after about 3 weeks, 100% = plants have died
In short: (§1)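 Pre-emergence soil-surface spray, WP/EC formulation, 0.5% additive, 600 l/ha water, rates of 320 g/ha or lower. Greenhouse, ~3 wk. Visual score, % of untreated control (100% = plants dead, 0% = like control).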

[3] = system: Amaranthus retroflexus (AMARE); experiment: Pre-emergence herbicidal action against AMARE; details: visual scoring after about 3 weeks vs untreated controls
In short: as §1

[4] = system: Avena fatua (AVEFA); experiment: Pre-emergence herbicidal action against AVEFA; details: visual scoring after about 3 weeks vs untreated controls
In short: as §1

[5] = system: Echinochloa crus-galli (ECHCG); experiment: Pre-emergence herbicidal action against ECHCG; details: dosage 320 g/ha
In short: as §1

[6] = system: Lolium rigidum (LOLRI); experiment: Pre-emergence herbicidal action against LOLRI
In short: as §1

[7] = system: Matricaria inodora (MATIN); experiment: Pre-emergence herbicidal action against MATIN; details: dosage 320 g/ha
In short: as §1

[8] = system: Pharbitis purpurea (PHBPU); experiment: Pre-emergence herbicidal action against PHBPU; details: dosage 320 g/ha
In short: as §1

[9] = system: Polygonum convolvulus (POLCO); experiment: Pre-emergence herbicidal action against POLCO
In short: as §1

[10] = system: Setaria viridis (SETVI); experiment: Pre-emergence herbicidal action against SETVI
In short: as §1

[11] = system: Verconica persica (VERPE); experiment: Pre-emergence herbicidal action against VERPE
In short: as §1

[12] = system: Viola tricolor (VIOTR); experiment: Pre-emergence herbicidal action against VIOTR
In short: as §1

[13] = system: Alopecurus myosuroides (ALOMY); experiment: Post-emergence herbicidal action against ALOMY; details: visual rating about 3 weeks after treatment vs untreated controls (100% = plants have died, 0% = like control plants)
In short: (§2)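 Doses of 320 g/ha or lower, suffixes a, b and c marking different dosages, were applied post-emergence at the one-leaf stage in 600 l/ha water with 0.5% additive. Damage was assessed visually after about 3 weeks in the greenhouse.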

[14] = system: Amaranthus retroflexus (AMARE); experiment: Post-emergence herbicidal action against AMARE
In short: as §2

[15] = system: Avena fatua (AVEFA); experiment: Post-emergence herbicidal action against AVEFA; details: visual rating about 3 weeks after treatment
In short: as §2

[16] = system: Echinochloa crus-galli (ECHCG); experiment: Post-emergence herbicidal action against ECHCG
In short: as §2

[17] = system: Lolium rigidum (LOLRI); experiment: Post-emergence herbicidal action against LOLRI
In short: as §2

[18] = system: Pharbitis purpurea (PHBPU); experiment: Post-emergence herbicidal action against PHBPU
In short: as §2

[19] = system: Polygonum convolvulus (POLCO); experiment: Post-emergence herbicidal action against POLCO
In short: as §2

[20] = system: Setaria viridis (SETVI); experiment: Post-emergence herbicidal action against SETVI
In short: as §2

[21] = system: Verconica persica (VERPE); experiment: Post-emergence herbicidal action against VERPE
In short: as §2

[22] = system: Viola tricolor (VIOTR); experiment: Post-emergence herbicidal action against VIOTR
In short: as §2

[23] = system: Abutilon theophrasti (ABUTH); experiment: Post-emergence herbicidal action against ABUTH; details: visual rating about 3 weeks after treatment vs untreated controls (100% = plants have died, 0% = like control plants)
In short: as §2

[24] = system: Oryza sativa (ORYSA); details: crop plant compatibility
In short: (§3)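 Effects were read visually as % versus untreated controls (0% = no effect, 100% = death) about 3 weeks post-treatment. Application was a post-emergence spray at the one-leaf stage of WP/EC formulations with 0.5% additive at 600 l/ha. Different dosages are denoted a, b and c.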

[25] = system: Zea mays (ZEAMX)
In short: as §3

[26] = 80 g/ha, visual rating about 3 weeks after treatment vs untreated controls (100% = plants have died, 0% = like control plants)
[27] = 320 g/ha, visual rating about 3 weeks after treatment
[28] = 80 g/ha, effect in comparison to untreated controls

SMILES: C[C@@H](Oc1nn(-c2ccccn2)c(-c2cncnc2)c1Cl)C(=O)O [Example I-20]
Pre-emergence action against ABUTH [1]: 90%
Pre-emergence action against ALOMY ([2]; 80 g/ha): 90%
Pre-emergence action against ALOMY ([2]; 320 g/ha): 100%
Pre-emergence action against AMARE in % ([3]; 80 g/ha): 100%
Pre-emergence action against AMARE in % ([3]; 320 g/ha): 100%
Pre-emergence action against AVEFA in % ([4]; 80 g/ha): 90%
Pre-emergence action against AVEFA in % ([4]; 320 g/ha): 100%
Pre-emergence action against ECHCG in % [5]: 100%
Pre-emergence action against LOLRI in % ([6]; dosage 80 g/ha): 100%
Pre-emergence action against LOLRI in % ([6]; dosage 320 g/ha): 100%
Pre-emergence action against MATIN in % [7]: 100%
Pre-emergence action against PHBPU in % [8]: 90%
Pre-emergence action against POLCO in % ([9]; dosage 80 g/ha): 90%
Pre-emergence action against POLCO in % ([9]; dosage 320 g/ha): 100%
Pre-emergence action against SETVI in % ([10]; dosage 320 g/ha): 100%
Pre-emergence action against VERPE in % ([11]; dosage 320 g/ha): 100%
Pre-emergence action against VIOTR in % ([12]; 320 g/ha, Viola tricolor): 100%
Pre-emergence action against VIOTR in % ([12]; dosage 80 g/ha): 100%
Post-emergence action against ALOMY in % ([13]; 80 g/ha): 100%
Post-emergence action against ALOMY in % ([13]; 320 g/ha): 100%
Post-emergence action against AMARE in % [14, 26]: 90%
Post-emergence action against AMARE in % [14, 27]: 90%
Post-emergence action against AVEFA in % ([15]; 80 g/ha): 90%
Post-emergence action against AVEFA in % ([15]; 320 g/ha): 90%
Post-emergence action against ECHCG in % ([16]; dosage 320 g/ha): 80%
Post-emergence action against LOLRI in % ([17]; dosage 80 g/ha): 90%
Post-emergence action against LOLRI in % ([17]; dosage 320 g/ha): 90%
Post-emergence action against PHBPU in % ([18]; dosage 80 g/ha): 90%
Post-emergence action against PHBPU in % ([18]; dosage 320 g/ha): 90%
Post-emergence action against POLCO in % ([19]; dosage 320 g/ha): 80%
Post-emergence action against SETVI in % ([20]; dosage 320 g/ha): 90%
Post-emergence action against VERPE in % ([21]; 320 g/ha, VERPE): 80%
Post-emergence action against VIOTR in % ([22]; 80 g/ha): 90%
Post-emergence action against VIOTR in % ([22]; 320 g/ha): 90%

Post-emergence action against ORYSA in % [24, 28]: 0%
SMILES: COC(=O)CNC(=O)[C@@H](C)Oc1nn(-c2ccccn2)c(-c2ccc(F)nc2)c1Cl [Example I-339]
Pre-emergence action against ABUTH [1]: 90%
Pre-emergence action against ALOMY ([2]; 80 g/ha): 100%
Pre-emergence action against ALOMY ([2]; 320 g/ha): 100%
Pre-emergence action against AMARE in % ([3]; 80 g/ha): 100%
Pre-emergence action against AMARE in % ([3]; 320 g/ha): 100%
Pre-emergence action against AVEFA in % ([4]; 80 g/ha): 100%
Pre-emergence action against AVEFA in % ([4]; 320 g/ha): 100%
Pre-emergence action against ECHCG in % [5]: 100%
Pre-emergence action against LOLRI in % ([6]; dosage 80 g/ha): 100%
Pre-emergence action against LOLRI in % ([6]; dosage 320 g/ha): 100%
Pre-emergence action against MATIN in % [7]: 100%
Pre-emergence action against POLCO in % ([9]; dosage 80 g/ha): 90%
Pre-emergence action against POLCO in % ([9]; dosage 320 g/ha): 100%
Pre-emergence action against SETVI in % ([10]; dosage 80 g/ha): 100%
Pre-emergence action against SETVI in % ([10]; dosage 320 g/ha): 100%
Pre-emergence action against VERPE in % ([11]; dosage 320 g/ha): 100%
Pre-emergence action against VIOTR in % ([12]; 320 g/ha, Viola tricolor): 100%
Pre-emergence action against VIOTR in % ([12]; dosage 80 g/ha): 100%
Post-emergence action against ABUTH in % ([23]; 80 g/ha): 80%
Post-emergence action against ABUTH in % ([23]; 320 g/ha): 90%
Post-emergence action against ALOMY in % ([13]; 80 g/ha): 90%
Post-emergence action against ALOMY in % ([13]; 320 g/ha): 100%
Post-emergence action against AMARE in % [14, 26]: 90%
Post-emergence action against AMARE in % [14, 27]: 90%
Post-emergence action against AVEFA in % ([15]; 80 g/ha): 90%
Post-emergence action against AVEFA in % ([15]; 320 g/ha): 90%
Post-emergence action against ECHCG in % ([16]; dosage 80 g/ha): 90%
Post-emergence action against ECHCG in % ([16]; dosage 320 g/ha): 90%
Post-emergence action against LOLRI in % ([17]; dosage 80 g/ha): 90%
Post-emergence action against LOLRI in % ([17]; dosage 320 g/ha): 90%
Post-emergence action against PHBPU in % ([18]; dosage 320 g/ha): 80%
Post-emergence action against POLCO in % ([19]; dosage 80 g/ha): 90%
Post-emergence action against POLCO in % ([19]; dosage 320 g/ha): 90%
Post-emergence action against SETVI in % ([20]; dosage 80 g/ha): 90%
Post-emergence action against SETVI in % ([20]; dosage 320 g/ha): 90%
Post-emergence action against VERPE in % ([21]; 320 g/ha, VERPE): 90%
Post-emergence action against VERPE in % ([21]; dosage 80 g/ha): 80%
Post-emergence action against VIOTR in % ([22]; 80 g/ha): 90%
Post-emergence action against VIOTR in % ([22]; 320 g/ha): 90%

Post-emergence action against ORYSA in % ([24]; 20 g/ha, effect vs untreated controls): 0%
Post-emergence action against ORYSA in % [24, 28]: 10%
Post-emergence action against ZEAMX in % (crop plant compatibility) ([25]; 20 g/ha, ZEAMX, effect in comparison to untreated controls): 0%
Post-emergence action against ZEAMX in % ([25]; crop plant compatibility, 80 g/ha, effect vs untreated controls): 10%
SMILES: C[C@@H](Oc1nn(-c2ncccc2F)c(-c2ccc(F)nc2)c1Br)C(=O)OCc1ccccn1 [Example I-52]
Pre-emergence action against ABUTH [1]: 80%
Pre-emergence action against ALOMY ([2]; 80 g/ha): 90%
Pre-emergence action against ALOMY ([2]; 320 g/ha): 100%
Pre-emergence action against AMARE in % ([3]; 80 g/ha): 80%
Pre-emergence action against AMARE in % ([3]; 320 g/ha): 100%
Pre-emergence action against AVEFA in % ([4]; 80 g/ha): 90%
Pre-emergence action against AVEFA in % ([4]; 320 g/ha): 100%
Pre-emergence action against ECHCG in % [5]: 100%
Pre-emergence action against LOLRI in % ([6]; dosage 80 g/ha): 90%
Pre-emergence action against LOLRI in % ([6]; dosage 320 g/ha): 100%
Pre-emergence action against MATIN in % [7]: 90%
Pre-emergence action against PHBPU in % [8]: 90%
Pre-emergence action against POLCO in % ([9]; dosage 320 g/ha): 90%
Pre-emergence action against SETVI in % ([10]; dosage 320 g/ha): 100%
Pre-emergence action against VERPE in % ([11]; dosage 80 g/ha): 80%
Pre-emergence action against VERPE in % ([11]; dosage 320 g/ha): 100%
Pre-emergence action against VIOTR in % ([12]; 320 g/ha, Viola tricolor): 100%
Pre-emergence action against VIOTR in % ([12]; dosage 80 g/ha): 100%
Post-emergence action against ALOMY in % ([13]; 80 g/ha): 90%
Post-emergence action against AVEFA in % ([15]; 80 g/ha): 90%
Post-emergence action against LOLRI in % ([17]; dosage 80 g/ha): 80%
Post-emergence action against SETVI in % ([20]; dosage 80 g/ha): 80%
Post-emergence action against VERPE in % ([21]; dosage 80 g/ha): 90%
